Experimental data taken from patent US20250346579A1, “PYRIDAZINONE COMPOUND AND PREPARATION METHOD THEREFOR, PHARMACEUTICAL COMPOSITION THEREOF, AND APPLICATION THEREOF” (CHINA PHARMACEUTICAL UNIVERSITY, priority 2021, published 2025).
Read-outs that look alike come from different tables or passages of the source.

Target: T1, PARP7 (Homo sapiens, UniProt Q7Z3E1)
T1 construct: purchased BPS Bioscience
T1 sequence (Q7Z3E1 1-657): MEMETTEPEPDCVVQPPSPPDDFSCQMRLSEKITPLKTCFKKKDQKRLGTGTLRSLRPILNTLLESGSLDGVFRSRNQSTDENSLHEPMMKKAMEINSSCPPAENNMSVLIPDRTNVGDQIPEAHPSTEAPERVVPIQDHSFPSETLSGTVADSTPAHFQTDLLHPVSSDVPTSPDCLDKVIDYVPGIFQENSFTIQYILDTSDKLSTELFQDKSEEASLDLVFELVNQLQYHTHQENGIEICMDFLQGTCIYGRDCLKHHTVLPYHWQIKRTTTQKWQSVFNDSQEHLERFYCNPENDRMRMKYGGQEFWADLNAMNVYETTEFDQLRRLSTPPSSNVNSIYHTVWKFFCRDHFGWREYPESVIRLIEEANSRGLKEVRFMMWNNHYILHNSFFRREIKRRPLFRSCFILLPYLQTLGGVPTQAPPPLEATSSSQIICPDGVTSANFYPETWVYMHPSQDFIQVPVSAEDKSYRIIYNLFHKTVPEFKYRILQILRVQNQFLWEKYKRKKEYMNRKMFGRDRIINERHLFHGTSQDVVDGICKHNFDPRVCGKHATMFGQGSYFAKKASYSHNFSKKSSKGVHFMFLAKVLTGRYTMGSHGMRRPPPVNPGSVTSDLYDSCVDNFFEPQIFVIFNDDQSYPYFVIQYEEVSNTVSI
Assay: Inhibitory activity of compounds on PARP7 enzyme (PARP7 Chemiluminescent Assay Kit)
Type: biochemical
Experimental: Experimental materials: PARP7 Chemiluminescent Assay Kit, BPS Bioscience; DMSO, China National Pharmaceutical Group, Nivo, PerkinElmer.
(1) Preparation of Solutions and Buffers:
Preparation of 10×PBS: 720 mg of KH2PO4, 45 g of NaCl and 5.311 g of Na2HPO4·12H2O were weighed respectively and dissolved in 500 mL of deionized water, a system pH value was adjusted to 7.4, sterilization was performed at 121° C. for 30 min, and the system after cooling was placed at 4° C. for later use.
Preparation of 1×PBS: 10×PBS was diluted 10 times with deionized water, that is, 9 parts of deionized water was added to 1 part of 10×PBS for dilution.
Preparation of wash buffer: 1×PBS contained 0.05% Tween-20.
Preparation of 1×PARP buffer (prepared freshly before use): 10×PARP buffer was diluted 10 times with deionized water and placed on ice for later use.
(2) Preparation of Compound Working Solution Concentration:
According to test requirements, a compound to be tested is diluted with 100% DMSO to a desired concentration, and then diluted 10 times with 1×PARP buffer to prepare a 10× compound working solution.
a. 5× histone mixture was thawed on ice one day prior to the experiment;
b. preparation of 1× histone mixture: 1× histone mixture was prepared through the 5× histone mixture by using 1×PBS; and 25 μL of 1× histone mixture was taken from each well and transferred into a test well plate and incubated overnight at 4° C.;
c. 100 μL of Blocking buffer was taken from each well and added to the test well plate and incubated for 90 min at 25° C.;
d. after the incubation was completed, the liquid in the test well plate was spin-dried, and the test well plate was washed repeatedly for 3 times;
e. 2.5 μL of the compound working solution was taken from each well and added to the test well plate according to an experimental layout diagram; and 1×PARP buffer with a corresponding volume of 10% DMSO was added to positive control wells (Positive Control), and 1×PARP buffer of a corresponding volume was added to blank control wells (Blank);
f. after the enzyme was completely dissolved, an enzyme stock solution was diluted with 1×PARP buffer to 6 ng/μL;
g. 10 μL of enzyme solution was taken from each well and added to the test well plate, the blank control wells were added with the corresponding volume of 1×PARP buffer, and in which case, the enzyme amount was 60 ng per well. Note: this step needs to be performed on ice;
h. 12.5 μL of master mixture was added to each well of the test well plate (12.5 μL master mixture included 1.25 μL of 10×PARP buffer, 1.25 μL of Opti-PARP 10× Assay mixture and 10 μL of water); the test well plate was sealed and incubated at 25° C. for 60 min;
i. after the incubation was completed, the liquid in the test well plate was spin-dried, and the test well plate was washed repeatedly for 3 times;
j. Streptavidin-HRP in a kit was diluted 50 times with a Blocking buffer, 25 μL was taken from each well and added to the test well plate, and incubated at 25° C. for 30 min;
k. after the incubation was completed, the liquid in the test well plate was spin-dried, and the test well plate was washed repeatedly for 3 times;
l. ELISA ECL Substrate A and ELISA ECL Substrate B in the kit was mixed to obtain a mixed solution according to a ratio of 1:1, 50 μL of the mixed solution was added to each well of the test well plate, Nivo was used to perform Luminescence detection immediately, and a luminous value (RLU) was read; and
m. calculation of an enzyme rate: Enzyme Activity=(RLU(Sample)−RLU(Blank))/(RLU(Pos.Ctrl)−RLU(Blank))×100%; and enzyme inhibition rate=1−% Enzyme Activity, and specific results were shown in Table 1 below.

[1] = chemiluminescence, symbols defined as IC50 classes, read-out: 100 nM Inhibition Rate
[2] = summary of Table 1, read-out: enzyme inhibition IC50 values

IC50 [1] [µM]	IC50 [2] [µM]	Structure (SMILES)
0.1 to 0.5		C[C@@H](CCN1CC(C(=O)N2CCN(c3ncc(C(F)(F)F)cn3)CC2)C1)Nc1cn[nH]c(=O)c1C(F)(F)F [I-A-21, (S)-4-(trifluoromethyl)-5-((4-(3-(4-(5-(trifluoromethyl)pyrimidin-2-yl)piperazine-1-carbonyl)azetidin-1-yl)butan-2-yl)amino)pyridazin-3(2H)-one]
0.1 to 0.5		C[C@@H](CN1CC(C(=O)N2CCN(c3ncc(C(F)(F)F)cn3)CC2)C1)Nc1cn[nH]c(=O)c1Cl [I-A-22, (S)-4-chloro-5-((1-(3-(4-(5-(trifluoromethyl)pyrimidin-2-yl)piperazine-1-carbonyl)azetidin-1-yl)propan-2-yl)amino)pyridazin-3(2H)-one]
0.1 to 0.5		C[C@@H](CN1CC(C(=O)N2CCN(c3ncc(C(F)(F)F)cn3)CC2)C1)Nc1cn[nH]c(=O)c1Br [I-A-23, (S)-4-bromo-5-((1-(3-(4-(5-(trifluoromethyl)pyrimidin-2-yl)piperazine-1-carbonyl)azetidin-1-yl)propan-2-yl)amino)pyridazin-3(2H)-one]
0.1 to 0.5		O=C(C1CN(CC2(Nc3cn[nH]c(=O)c3C(F)(F)F)CC2)C1)N1CCN(c2ncc(C(F)(F)F)cn2)CC1 [I-A-24, 4-(trifluoromethyl)-5-((1-((3-(4-(5-(trifluoromethyl)pyrimidin-2-yl)piperazine-1-carbonyl)azetidin-1-yl)methyl)cyclopropyl)amino)pyridazin-3(2H)-one]
< 0.1	< 0.1	C[C@@H](CN1CC(C(=O)N2CCN(c3ccc4c(c3)OC(F)(F)O4)CC2)C1)Nc1cn[nH]c(=O)c1C(F)(F)F [I-B-1, (S)-5-((1-(3-(4-(2,2-difluorobenzo[d][1,3]dioxol-5-yl)piperazine-1-carbonyl)azetidin-1-yl)propan-2-yl)amino)-4-(trifluoromethyl)pyridazin-3(2H)-one]
< 0.1	< 0.1	C[C@@H](Cn1ccc(C(=O)N2CCN(c3ncc(C(F)(F)F)cn3)CC2)c1)Nc1cn[nH]c(=O)c1C(F)(F)F [I-C-1, (S)-4-(trifluoromethyl)-5-((1-(3-(4-(5-(trifluoromethyl)pyrimidin-2-yl)piperazine-1-carbonyl)-1H-pyrrol-1-yl)propan-2-yl)amino)pyridazin-3(2H)-one]
< 0.1	< 0.1	CC(CC1CN(C(=O)C2CCN(c3ncc(C(F)(F)F)cn3)CC2)C1)Nc1cn[nH]c(=O)c1C(F)(F)F [I-D-1, 4-(trifluoromethyl)-5-((1-(1-(1-(5-(trifluoromethyl)pyrimidin-2-yl)piperidine-4-carbonyl)azetidin-3-yl)propan-2-yl)amino)pyridazin-3(2H)-one]
< 0.1	< 0.1	O=C(NCCCCNc1cn[nH]c(=O)c1C(F)(F)F)N1CCN(c2ncc(C(F)(F)F)cn2)CC1 [I-E-1, N-(4-((6-oxo-5-(trifluoromethyl)-1,6-dihydropyridazin-4-yl)amino)butyl)-4-(5-(trifluoromethyl)pyrimidin-2-yl)piperazine-1-carboxamide]
< 0.1	< 0.1	O=C(NC/C=C/CNc1cn[nH]c(=O)c1C(F)(F)F)N1CCN(c2ncc(C(F)(F)F)cn2)CC1 [I-E-2, (E)-N-(4-((6-oxo-5-(trifluoromethyl)-1,6-dihydropyridazin-4-yl)amino)but-2-en-1-yl)-4-(5-(trifluoromethyl)pyrimidin-2-yl)piperazine-1-carboxamide]
< 0.1	< 0.1	O=C(Nc1cccc(CNc2cn[nH]c(=O)c2C(F)(F)F)c1)N1CCN(c2ncc(C(F)(F)F)cn2)CC1 [I-E-7, N-(3-(((6-oxo-5-(trifluoromethyl)-1,6-dihydropyridazin-4-yl)amino)methyl)phenyl)-4-(5-(trifluoromethyl)pyrimidin-2-yl)piperazine-1-carboxamide]
